# The source made the active and inactive calls.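 The calls were made as follows: active = compounds whose peak USP7 inhibition across the dose series reached 30% or more; inactive = the rest.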
# Molecular target: Ubiquitin carboxyl-terminal hydrolase 7 (Homo sapiens) (UniProt Q93009)
# Assay: Biochemical concentration-response for ubiquitin-specific peptidase 7 DUB inhibitors, verifying primary hits (AID 1645861)
# Conditions: purified USP7, Ub-rhodamine cleavage fluorescence, 60 min
# Ubiquitin carboxyl-terminal hydrolase 7 (Homo sapiens), sequence (Q93009 whole entry, looked up): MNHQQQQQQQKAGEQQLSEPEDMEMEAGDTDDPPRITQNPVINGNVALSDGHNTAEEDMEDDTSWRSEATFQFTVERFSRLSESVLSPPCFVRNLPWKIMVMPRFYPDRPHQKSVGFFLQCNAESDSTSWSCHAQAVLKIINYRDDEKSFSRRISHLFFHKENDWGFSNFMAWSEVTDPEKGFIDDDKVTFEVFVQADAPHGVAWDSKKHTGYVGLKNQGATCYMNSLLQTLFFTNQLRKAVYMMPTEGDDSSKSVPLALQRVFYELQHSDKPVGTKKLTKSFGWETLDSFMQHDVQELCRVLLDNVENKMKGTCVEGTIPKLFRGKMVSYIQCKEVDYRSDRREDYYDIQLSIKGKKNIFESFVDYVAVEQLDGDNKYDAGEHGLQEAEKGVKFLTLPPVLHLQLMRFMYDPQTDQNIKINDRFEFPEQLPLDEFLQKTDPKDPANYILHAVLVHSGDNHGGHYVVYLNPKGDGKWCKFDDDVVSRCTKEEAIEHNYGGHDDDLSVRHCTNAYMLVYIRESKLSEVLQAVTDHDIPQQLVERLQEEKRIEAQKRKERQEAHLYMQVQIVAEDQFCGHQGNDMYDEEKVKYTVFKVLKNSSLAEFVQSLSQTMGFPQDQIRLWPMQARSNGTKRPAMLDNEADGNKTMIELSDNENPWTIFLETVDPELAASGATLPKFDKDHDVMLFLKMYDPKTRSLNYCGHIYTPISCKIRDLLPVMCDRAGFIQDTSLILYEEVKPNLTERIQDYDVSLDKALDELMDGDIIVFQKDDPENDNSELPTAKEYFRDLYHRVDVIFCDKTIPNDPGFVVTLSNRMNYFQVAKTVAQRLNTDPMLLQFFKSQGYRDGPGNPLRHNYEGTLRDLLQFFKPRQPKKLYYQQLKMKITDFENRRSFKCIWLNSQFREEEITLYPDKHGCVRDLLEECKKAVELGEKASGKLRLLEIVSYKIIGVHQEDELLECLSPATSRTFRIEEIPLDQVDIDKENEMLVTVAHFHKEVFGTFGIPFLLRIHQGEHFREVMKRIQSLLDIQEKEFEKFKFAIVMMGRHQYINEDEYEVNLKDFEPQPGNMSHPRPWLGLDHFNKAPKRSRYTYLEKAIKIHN
row,Compound,IC50
1,Cc1ccc(NC(=O)c2ccc3nn(CC(=O)Nc4ccc(F)cc4F)c(=O)n3c2)cc1,> 50 µM (inactive)
2,Cc1sc2ccn(C)c(=O)c2c1C(=O)NC1CCCC1,> 50 µM (inactive)
3,O=C(NC(Cc1ccccc1)c1nc2ccccc2[nH]1)C1CC1 (stereo not given),> 50 µM (inactive)
4,O=C(NCCc1ccccc1)c1ccc2c(=O)n(Cc3ccco3)c(=O)n(Cc3cccc([N+](=O)[O-])c3)c2c1,13.4 µM
5,C[C@H](Cc1cc2c(cc1O)OCO2)[C@@H](C)Cc1cc2c(cc1O)OCO2,> 50 µM (inactive)
6,O=C1c2ccccc2-c2nnc(-c3ccncc3)cc21,> 50 µM (inactive)
7,COC(=O)c1c(OC)cc2c(c1C)Oc1c(Cl)c(O)c(Cl)c(C)c1C(=O)O2,> 50 µM (inactive)
8,COc1ccc(C)cc1NC(=O)C1CC(=O)Nc2nc3ccccc3n21 (stereo not given),> 50 µM (inactive)
9,CCC1OC(O)(C(C)C(O)C(C)C2OC(=O)/C(C)=C/C(C)=CC(C)C(O)C(C)C/C(C)=C/C=C/C2OC)CC(OC(=O)/C=C/C(=O)NC2=C(O)CCC2=O)C1C (stereo not given),23.2 µM
10,COc1ccc(-c2cc(-c3ccc(F)cc3)[nH]c(=O)c2C#N)cc1,> 50 µM (inactive)
11,O=C(COc1ccccc1-c1nnc(-c2ccccc2)o1)NCCc1ccco1,> 50 µM (inactive)
12,CCOC(=O)C1CCN(C(=O)c2ccc3c(c2)NC(=O)C2CCCN32)CC1 (stereo not given),> 50 µM (inactive)
13,Oc1cccc2nc3c(O)cccc3nc12,> 50 µM (inactive)
14,C[C@@H]1OC2=C(C(=O)c3cccc(O)c3C2=O)[C@H](O)[C@@H]1O,> 50 µM (inactive)
15,COc1ccc(NC(=O)CC(=O)c2ccc([N+](=O)[O-])cc2)cc1S(=O)(=O)Nc1ccc(Cl)cc1,> 50 µM (inactive)

# — PubChem BioAssay AID1645861 (Buhrlage Lab, Dana-Farber Cancer Institute and Novartis …, 2021)
